Reference: publication PMC11869560, “Anticancer and cancer preventive activities of shogaol and curcumin from Zingiberaceae family plants in KG-1a leukemic stem cells” (BMC Complementary Medicine and Therapies, 2025)

How the values were obtained:
[1] = tested on: WT1 protein expression in KG-1a cells; test: WT1 protein expression in KG-1a cells by Western blotting; format: cell-based, human
Experimental: (§1) KG-1a cells (1.5 × 10^5 cells/mL) were treated with compounds or extracts at different incubation times. Then, the cells were harvested and the whole proteins were extracted using a RIPA buffer (25 mM Tris-base, pH 7.6, 0.1% SDS, 1% Triton X-100, 150 mM NaCl, and 1 mM EDTA). The protein concentration was measured using the Folin-Lowry or Bradford assay. The whole protein lysates (30 µg/lane) were then separated through 7.5% SDS-PAGE under reducing conditions and then transferred to PVDF membranes. The membranes were blocked in 5% skim milk in PBS, pH 7.4 at RT for 2 h, then, target proteins were probed with specific primary antibodies (anti-WT1, anti-CD34, anti-GAPDH, anti-cleaved caspase-3, anti-cleaved PARP, anti-phospho-Akt, anti-phospho-c-Jun, anti-phospho-SAPK/JNK, and anti-YAP/TAZ) indicated in Table S10 which diluted at a ratio of 1:1,000 in PBS, pH 7.4 at RT for 2 h. After incubation, the membranes were rinsed 6 times with 0.1% Tween-20 (Sigma-Aldrich, MA, USA) in PBS, pH 7.4 (PBS-T), each time for 5 min. The reaction was followed by HRP-conjugated secondary antibody at 1:20,000 dilution in PBS, pH 7.4 at RT for 2 h, then, the membranes were rinsed 6 times for 5 min each with PBS-T. The proteins were shown using Immobilon Forte Western HRP substrate (Millipore, MA, USA). Finally, the protein band signal was quantified by using a scan densitometer (Bio-Rad Laboratories, CA, USA).

[2] = tested on: p-c-Jun and p-SAPK/JNK in KG-1a cells; test: p-c-Jun and p-SAPK/JNK in KG-1a cells by Western blotting; format: cell-based, human; conditions: IC50 concentration, 6 h
Experimental: as §1, with “The reaction was followed by HRP-conjugated secondary antibody at 1:20,000 dilution in PBS, pH 7.4 at RT for 2 h, then, the membranes were rinsed 6 times for 5 min each with PBS-T. The proteins were shown using Immobilon Forte Western HRP substrate (Millipore, MA, USA).” left out, “USA). […]” for “USA).”

[3] = tested on: p-Akt (S473) in KG-1a cells; test: p-Akt (S473) in KG-1a cells by Western blotting; format: cell-based, human; conditions: IC50 concentration, 6 h
Experimental: as §1, with “The reaction was followed by HRP-conjugated secondary antibody at 1:20,000 dilution in PBS, pH 7.4 at RT for 2 h, then, the membranes were rinsed 6 times for 5 min each with PBS-T. The proteins were shown using Immobilon Forte Western HRP substrate (Millipore, MA, USA).” left out, “USA). […]” for “USA).”

[4] = tested on: KG-1a cells; test: Cell death analysis by PI staining and flow cytometry in KG-1a cells; format: cell-based, human; conditions: nocodazole 5–120 ng/mL, shogaol 6–9 µg/mL, curcumin various concentrations; time course
Experimental: Additionally, PI staining was used to investigate the cytotoxicity of the active compounds. KG-1a cells after exposure to the active compounds with various concentration were harvested at different incubation times and washed with ice-cold PBS, pH 7.4 for 2 times. Then, the cells were resuspended with PI in PBS, pH 7.4 at a ratio of 1:10,000. The percentage of dead cells was detected by flow cytometry (CytoFLEX S, Beckman Coulter, CA, USA) and analyzed by CytExpert program (Beckman Coulter, CA, USA).

[5] = tested on: TAZ protein expression in KG-1a cells; test: TAZ protein expression in KG-1a cells by Western blotting; format: cell-based, human; conditions: IC50 concentrations, 0–12 h
Experimental: as §1, with “The reaction was followed by HRP-conjugated secondary antibody at 1:20,000 dilution in PBS, pH 7.4 at RT for 2 h, then, the membranes were rinsed 6 times for 5 min each with PBS-T. The proteins were shown using Immobilon Forte Western HRP substrate (Millipore, MA, USA).” left out

[6] = tested on: cleaved caspase-3 and PARP in KG-1a cells; test: Cleaved caspase-3 and cleaved PARP in KG-1a cells by Western blotting; format: cell-based, human; conditions: IC50 concentrations (curcumin 10 µg/mL, shogaol 3 µg/mL, nocodazole 10 ng/mL), 0–12 h
Experimental: as §1

[7] = tested on: CD34 protein expression in KG-1a cells; test: CD34 protein expression in KG-1a cells by Western blotting; format: cell-based, human; conditions: IC20 concentrations, 48 h, normalized to GAPDH
Experimental: as §1

[8] = tested on: TNF-α production in LPS-activated RAW264.7 cells; test: TNF-α production in LPS-activated RAW264.7 cells (ELISA); format: cell-based, mouse; conditions: IC20 concentration, 2 h pre-treatment then 1 µg/mL LPS 24 h
Experimental: (§2) For the measurement of tumor necrosis factor-alpha (TNF-α) and NO, RAW264.7 cells were pre-treated with plant extracts and active compounds at a non-cytotoxic dose (IC20) (Table S9) or 1 µg/mL of dexamethasone (positive control) in a 24-well plate for 2 h. Subsequently, 1 µg/mL of lipopolysaccharide (LPS) (Cat No. 00497693, Invitrogen™, MA, USA) was added to each well, and the cells were incubated for an additional 24 h to allow sufficient time for the compounds to exert measurable anti-inflammatory effects while maintaining cell viability. Afterward, supernatants were collected, and the levels of TNF-α and NO were measured using the Mouse TNF alpha Uncoated ELISA Kit (Invitrogen™, ThermoFisher Scientific, MA, USA) and the Total Nitric Oxide Assay Kit (Invitrogen™, ThermoFisher Scientific, MA, USA), respectively, according to the manufacturer’s instructions.
(§3) The percentage of NO or cytokine inhibitions were calculated using the following equation: […]
(§4) where A is the level of cytokine or NO without treatment, and B is the level of cytokine or NO with treatment.

[9] = tested on: IL-2 production in PHA-activated PBMCs; test: IL-2 production in PHA-activated PBMCs (ELISA); format: cell-based, human; conditions: IC20 concentration, 2 h pre-treatment then 20 µL/mL PHA 24 h
Experimental: For the measurement of interleukin-2 (IL-2), human PBMCs were pre-treated with plant extracts and active compounds at the IC20 concentration (Table S9) or 1 µg/mL of dexamethasone (positive control) in a 24-well plate for 2 h. Subsequently, 20 µL/mL of phytohemagglutinin (PHA) (Cat. No. 10576015, Thermo Fisher Scientific, MA, USA) was added to each well, and the cells were incubated for an additional 24 h. After that, supernatants were collected, and the levels of IL-2 were measured by the Human IL-2 Uncoated ELISA Kit (Invitrogen™, ThermoFisher Scientific, MA, USA), according to the manufacturer’s instructions.
as §3, §4

[10] = tested on: NO production in LPS-activated RAW264.7 cells; test: NO production in LPS-activated RAW264.7 cells; format: cell-based, mouse; conditions: IC20 concentration, 2 h pre-treatment then 1 µg/mL LPS 24 h
Experimental: as §2, §3, §4

[11] = IC20 concentrations, 48 h, normalized to GAPDH

Row | Compound | decrease of WT1 protein level compared to VC [1, 11] [%] | decrease of WT1 protein level compared to VC ([1]; IC50 concentration, 6 h) [%] | p-c-Jun and p-SAPK/JNK levels compared to VC [2] | p-Akt (S473) level compared to VC [3] | induction of cell death (PI staining) [4] | effect on TAZ protein abundance [5] | time to activation of cleaved caspase-3 and PARP [6] [h] | decrease of CD34 protein level compared to VC [7] [%] | decrease of WT1 protein level compared to VC ([1]; IC50 concentration, 3 h) [%] | inhibition of TNF-α release [8] [%] | inhibition of IL-2 release [9] [%] | inhibition of NO release [10] [%]
1 | COc1cc(/C=C/C(=O)CC(=O)/C=C/c2ccc(O)c(OC)c2)ccc1O [Curcumin, curcumin] | 44.05 ± 9.81 | 77.01 ± 8.80 | increased | decreased | gradually induced cell death after 12 h of incubation | no significant change in its abundance was observed | 6 | 29.29 ± 2.43 | – | – | – | –
2 | CCCCC/C=C/C(=O)CCc1ccc(O)c(OC)c1 [Shogaol, shogaol] | 30.71 ± 3.90 | – | increased | decreased | notably induced cell death at 6 h | no significant change in its abundance was observed | 3 | 35.93 ± 3.70 | 22.58 ± 3.99 | 24.41 ± 0.99 | 80.04 ± 4.82 | 46.46 ± 3.71
